Assay results as given in PMC6934184, “Selective DNA-PKcs inhibition extends the therapeutic index of localized radiotherapy and chemotherapy” (The Journal of Clinical Investigation, 2019).

Molecular target: T1, LIMK2 (Homo sapiens, UniProt P53671)
T1 construct: purchased Thermo Fisher Scientific (Life Technologies) SelectScreen
Test: SelectScreen LanthaScreen
Type: binding
Details: read-out: % displacement
Summary of the method: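 SelectScreen broad panel; activity (Z'LYTE, Adapta) plus binding formats. ATP: Km app for CSF1R Z'LYTE; 10 for CAMK1 Adapta. Readout = % per kinase.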

T1 sequence (P53671 whole entry): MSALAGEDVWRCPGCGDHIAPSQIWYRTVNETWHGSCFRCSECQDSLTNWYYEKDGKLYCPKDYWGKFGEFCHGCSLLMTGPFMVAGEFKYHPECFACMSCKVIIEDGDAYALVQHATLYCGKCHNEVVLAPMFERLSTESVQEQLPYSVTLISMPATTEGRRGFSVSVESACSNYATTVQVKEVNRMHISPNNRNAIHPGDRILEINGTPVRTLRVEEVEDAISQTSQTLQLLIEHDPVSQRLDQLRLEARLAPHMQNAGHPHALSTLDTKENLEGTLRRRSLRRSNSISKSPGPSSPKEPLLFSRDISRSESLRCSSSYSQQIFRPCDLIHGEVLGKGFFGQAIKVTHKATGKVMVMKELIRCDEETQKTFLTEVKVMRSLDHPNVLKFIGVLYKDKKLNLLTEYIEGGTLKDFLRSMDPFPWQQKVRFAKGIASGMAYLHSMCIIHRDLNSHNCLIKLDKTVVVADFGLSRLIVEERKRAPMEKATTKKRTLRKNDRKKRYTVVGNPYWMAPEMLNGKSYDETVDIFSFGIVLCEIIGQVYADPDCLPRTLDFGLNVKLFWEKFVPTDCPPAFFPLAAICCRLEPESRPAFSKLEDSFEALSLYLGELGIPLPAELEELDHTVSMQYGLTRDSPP

Q: CN(C(=O)CN1CCOCC1)c1ccc2sc3c(-c4cccc5c(=O)cc(N6CC7CCC(C6)O7)oc45)cccc3c2c1 [NU5455] was tested. Which inhibition at 1 µM did it give?
A: Its inhibition at 1 µM is 1.4%.
